Source: patent publication US12577217B2, “15-PGDH inhibitor” (KYORIN Pharmaceutical Co., Ltd., priority 2019, dated 2026)

Molecular target: T1, recombinant human 15-PGDH (Homo sapiens, UniProt P15428)
T1 construct: purchased R&D Systems
T1 sequence (P15428 1-266): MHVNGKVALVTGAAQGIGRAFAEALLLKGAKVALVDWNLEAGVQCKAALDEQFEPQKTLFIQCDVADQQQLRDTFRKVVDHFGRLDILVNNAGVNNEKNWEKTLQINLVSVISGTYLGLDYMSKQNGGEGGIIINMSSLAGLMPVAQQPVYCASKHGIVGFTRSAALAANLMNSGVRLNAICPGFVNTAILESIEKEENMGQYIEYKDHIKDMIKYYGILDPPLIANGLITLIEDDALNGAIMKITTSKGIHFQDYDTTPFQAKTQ
Assay: 15-PGDH enzyme inhibition test
Type: biochemical
Settings: 4 nM recombinant human 15-PGDH, 30 μM PGE2, 1 mM NAD+, 60 minutes after starting the reaction; read-out: IC50 Value
Method: 15-PGDH Enzyme Inhibition Test
A test compound and 4 nM recombinant human 15-PGDH (R&D Systems) were added, in 50 mM Tris-HCl (pH 8.0) containing 0.01% TWEEN 20 (Sigma) and 0.01% bovine gamma globulin (Sigma), to a 384-well Flat Bottom Black plate (Corning, 3820), and the resultant was allowed to stand still at room temperature for 12 minutes, and 30 μM PGE2 (Cayman Chemical) and 1 mM NAD+ (Sigma) were added thereto to start the reaction. 60 minutes after starting the reaction, measurement was performed using Synergy 2 (BioTeck) at an excitation wavelength of 340 nm and a fluorescence wavelength of 440 nm. Assuming that a fluorescence signal obtained with an assay buffer added instead of the test compound and NAD+ was 100% and that a signal obtained with NAD+ added was 0%, a concentration corresponding to 50% inhibition plotted on a concentration-reaction curve of the test compound was defined as an IC50 value. Incidentally, in the following tables, an IC50 value smaller than 10 nM was shown as +++, an IC50 value equal to or larger than 10 nM and smaller than 100 nM was shown as ++, and an IC50 value equal to or larger than 100 nM was shown as +.

Row | SMILES | IC50 [nM]
1 | Cn1ccc2cc(N3CCOc4cc(C(=O)N5CCC(F)(F)CC5)cnc43)ccc2c1=O [Example 1-267] | < 10
2 | CO[C@H]1CCCN(C(=O)c2cnc3c(c2)OCCN3c2ccn3c(=O)n(C)nc3c2)C1 [Example 18-2] | < 10
3 | COCCN1Cc2cc(N3CCCc4cc(C(=O)N5CCC(F)(F)CC5)cnc43)ccc2C1=O [Example 1-82] | < 10
4 | Cn1nc2cc(N3CCOc4cc(C(=O)N5Cc6ccccc6C5)cnc43)ccn2c1=O [Example 8-103] | < 10
5 | Cn1nc2cc(N3CCOc4cc(C(=O)N5CCC(C(F)(F)F)CC5)cnc43)ccn2c1=O [Example 8-101] | < 10
6 | COc1cc(N2CCOc3cc(C(=O)N4CCCCC4)cnc32)cc2nn(C)c(=O)n12 [Example 1-230] | 10 to 100
7 | COc1cc(N2CCOc3cc(C(=O)N4CCCCC4)cnc32)ccc1C(=O)O [Example 4-15] | 10 to 100
8 | CC(=O)N1CCN(C(=O)c2cnc3c(c2)OCCN3c2ccc3c(c2)CN(C)C3=O)CC1 [Example 8-190] | > 100
9 | O=C(O)c1cccc(N2CCOc3cc(C(=O)N4CCCCC4)ccc32)c1 [Example 2-31] | < 10
10 | NC(=O)c1ccc(N2CCOc3cc(C(=O)N4CCCCC4)cnc32)cn1 [Example 6-21] | < 10
11 | COC(=O)c1ccccc1N1CCOc2cc(C(=O)N3CCCCC3)cnc21 [Example 1-263] | > 100
12 | CC(O)CCNC(=O)c1cnc2c(c1)OCCN2c1ccn2c(=O)n(C)nc2c1 (stereo not shown) [Example 8-180] | 10 to 100
13 | O=C(O)c1ccc(N2CCCOc3cc(C(=O)N4CCCCC4)cnc32)cc1 [Example 2-8] | < 10
14 | O=C(c1ccc2c(c1)OCCN2c1ccn2c(=O)[nH]nc2c1)N1CCC(F)(F)CC1 [Example 1-148] | < 10
15 | O=C(c1ccc2c(c1)OCCN2c1ccccc1)N1CCCCC1 [Example 1-18] | < 10
16 | Cn1nc2cc(N3CCOc4cc(C(=O)C5CCC(F)(F)CC5)cnc43)ccn2c1=O [Example 1-132] | < 10
17 | COCn1nc2cc(N3CCOc4cc(C(=O)N5CCC(F)(F)CC5)ccc43)ccn2c1=O [Example 1-154] | < 10
18 | Cn1nc2cc(N3CCCc4cc(C(=O)N5CCC[C@H](F)C5)cnc43)ccn2c1=O [Example 8-138] | < 10
19 | CN(CCCO)C(=O)c1cnc2c(c1)OCCN2c1ccn2c(=O)n(C)nc2c1 [Example 8-175] | 10 to 100
20 | COC(=O)c1ccccc1N1CCOc2cc(C(=O)N3CCCCC3)ccc21 [Example 1-137] | > 100
21 | CN(C)CCn1nc2cc(N3CCOc4cc(C(=O)N5CCCCC5)cnc43)ccn2c1=O [Example 1-33] | < 10
22 | O=C(c1cnc2c(c1)OCCN2c1ccn2c(=O)n(Cc3ccc(F)cc3)nc2c1)N1CCCCC1 [Example 27-1] | < 10
23 | CN1CCN(C(=O)c2cnc3c(c2)OCCN3c2ccc(C(=O)O)cc2)CC1 [Example 4-11] | 10 to 100
24 | O=C(c1cnc2c(c1)OCCN2c1ccn2c(=O)n(Cc3ccc(F)c(F)c3)nc2c1)N1CCC(F)(F)CC1 [Example 27-6] | < 10

Row | SMILES | IC50 [nM]
25 | O=C(c1cnc2c(c1)OCCN2c1ccn2c(=O)n(Cc3ccnc(Cl)c3)nc2c1)N1CCCCC1 [Example 27-2] | < 10
26 | CC(=O)N1CCN(C(=O)c2cnc3c(c2)CCCN3c2ccn3c(=O)n(C)nc3c2)CC1 [Example 8-128] | > 100
27 | Cn1nc2cc(N3CCOc4cc(C(=O)N5CCCC6CC65)cnc43)ccn2c1=O (stereo not shown) [Example 8-54] | < 10
28 | Cn1cnc2cc(N3CCOc4cc(C(=O)N5CCCCC5)cnc43)ncc2c1=O [Example 1-39] | 10 to 100
29 | CN1Cc2cc(N3CCOc4cc(S(=O)(=O)C5CCCCC5)cnc43)ccc2C1=O [Example 7-10] | 10 to 100
30 | Cn1nc2cc(N3CCCOc4cc(C(=O)N5CCC[C@H](F)C5)cnc43)ccn2c1=O [Example 8-63] | < 10
31 | COCn1nc2cc(N3CCCOc4cc(C(=O)N5CCCCC5)cnc43)ccn2c1=O [Example 1-52] | < 10
32 | CCN1Cc2cc(N3CCCc4cc(C(=O)N5CCCCC5)cnc43)ccc2C1=O [Example 1-169] | < 10
33 | O=C1NCc2cc(N3CCCc4cc(C(=O)N5CCC(F)(F)CC5)cnc43)ccc21 [Example 14-5] | < 10
34 | Cn1nc2cc(N3CCCc4cc(C(=O)N5CCC[C@@H](CF)C5)cnc43)ccn2c1=O [Example 1-119] | < 10
35 | O=C(O)c1ccc(N2CCOc3cc(C(=O)N4CCOCC4)cnc32)cc1 [Example 4-10] | 10 to 100
36 | COCn1nc2cc(N3CCCc4cc(C(=O)N5CCC[C@@H](CF)C5)cnc43)ccn2c1=O [Example 1-121] | < 10
37 | COCCN1Cc2cc(N3CCOc4cc(C(=O)N5CCC(F)(F)CC5)cnc43)ccc2C1=O [Example 1-49] | < 10
38 | COC(=O)C1CN(C(=O)c2cnc3c(c2)OCCN3c2ccn3c(=O)n(C)nc3c2)C1 [Example 8-37] | < 10
39 | CN1CCN(C(=O)c2cnc3c(c2)CCCN3c2ccn3c(=O)n(C)nc3c2)CC1 [Example 8-127] | 10 to 100
40 | O=C(O)c1ccc(N2CCOc3cc(C(=O)N4CCCC(F)(F)C4)cnc32)cc1 [Example 4-6] | < 10
41 | CCN1Cc2cc(N3CCCc4cc(C(=O)N5CCCC(F)(F)C5)cnc43)ccc2C1=O [Example 8-85] | < 10
42 | CCOCCn1nc2cc(N3CCCc4cc(C(=O)N5CCC(F)(F)CC5)cnc43)ccn2c1=O [Example 1-79] | < 10
43 | CNC(=O)c1ncc(N2CCCc3cc(C(=O)N4CCCCC4)cnc32)cc1F [Example 1-69] | < 10
44 | Cn1nc2cc(N3CCCc4cc(C(=O)N5CCCCC5)cnc43)ccn2c1=O [Example 1-94] | < 10
45 | CCN1Cc2cc(N3CCCc4cc(C(=O)N5CCC[C@@H](C(F)(F)F)C5)cnc43)ccc2C1=O [Example 8-87] | < 10
46 | O=C(O)c1ccc(N2CCOc3cc(C(=O)N4CCCCC4)ccc32)cc1 [Example 2-7] | < 10
47 | COc1cc(N2CCOc3cc(C(=O)N4CC=CCC4)ccc32)ccc1C(N)=O [Example 5-1, 2-Methoxy-4-(7-(1,2,3,6-tetrahydropyridine-1-carbonyl)-2,3-dihydro-4H-benzo[b][1,4]oxazin-4-yl)benzamide] | < 10
48 | CCCN1Cc2cc(N3CCOc4cc(C(=O)N5CCCCC5)cnc43)ccc2C1=O [Example 1-222] | < 10

Row | SMILES | IC50 [nM]
49 | O=C(O)c1ccc(N2CCOc3nc(C(=O)N4CCCCC4)ccc32)cc1 [Example 4-4] | < 10
50 | C[C@H]1CCCN(C(=O)c2cnc3c(c2)OCCN3c2ccn3c(=O)[nH]nc3c2)C1 [Example 1-42] | < 10
51 | CC(C)(O)c1ccc(N2CCOc3c2ccc(C(=O)N2CCCCC2)c3Cl)cc1 [Example 10-2] | < 10
52 | Cn1cnc2cc(N3CCOc4cc(C(=O)N5CCC(F)(F)CC5)cnc43)ccc2c1=O [Example 1-226] | < 10
53 | CC(=O)NC(C)(C)c1ccc(N2CCOc3cc(C(=O)N4CCCCC4)cnc32)cc1 [Example 31-1] | > 100
54 | O=C(O)c1ccc(N2CCOc3cc(C(=O)N4CCC(F)(F)CC4)ccc32)cc1 [Example 2-35] | < 10
55 | CN(CC1CCCC1)C(=O)c1cnc2c(c1)OCCN2c1ccn2c(=O)n(C)nc2c1 [Example 17-3] | < 10
56 | CCN1Cc2cc(N3CCCc4cc(C(=O)N5CC=CCC5)cnc43)ccc2C1=O [Example 8-75] | < 10
57 | CCOCCN1Cc2cc(N3CCCc4cc(C(=O)N5CCC(F)(F)CC5)cnc43)ncc2C1=O [Example 1-185] | 10 to 100
58 | Cn1nc2cc(N3CCCOc4cc(C(=O)N5CCC(F)(F)CC5)cnc43)ccn2c1=O [Example 8-64] | < 10
59 | CN1Cc2cc(N3CCOc4cc(C(=O)N5CCOCC5)cnc43)ccc2C1=O [Example 8-188] | < 10
60 | Cn1nc2cc(N3CCOc4cc(C(=O)N5CCCCC5)cnc43)c(Cl)cn2c1=O [Example 1-270] | > 100
61 | COCCN1Cc2cc(N3CCOc4cc(C(=O)N5CCC(F)(F)CC5)cnc43)ncc2C1=O [Example 1-266] | 10 to 100
62 | Cn1nc2cc(N3CCOc4cc(C(=O)N5CCOC6(CC6)C5)cnc43)ccn2c1=O [Example 8-49] | < 10
63 | NC(=O)c1ccc(N2CCOc3cc(C(=O)N4CCCCC4)ccc32)cn1 [Example 6-3] | < 10
64 | COc1cc(N2CCOc3cc(C(=O)N4CCCCC4)ccc32)ccc1C(=O)O [Example 2-12] | < 10
65 | CCn1nc2cc(N3CCCc4cc(C(=O)N5CCCCC5)cnc43)ccn2c1=O [Example 1-54] | < 10
66 | CCN1Cc2cc(N3CCCc4cc(C(=O)N5CCC[C@H](C(F)(F)F)C5)cnc43)ccc2C1=O [Example 8-88] | < 10
67 | O=C(c1cnc2c(c1)OCCN2c1ccn2c(=O)n(CC(F)(F)F)nc2c1)N1CCC(F)(F)CC1 [Example 27-8] | < 10
68 | O=C(O)c1ccc(N2CCc3cc(C(=O)N4CCCCC4)ccc32)cc1 [Example 2-30] | < 10
69 | NC(=O)c1ccc(N2CCOc3cc(C(=O)N4CCCCC4)ccc32)nc1 [Example 6-2] | < 10
70 | COC(=O)c1ccc(N2CCc3cc(C(=O)N4CCCCC4)ccc32)cc1 [Example 1-140] | < 10
